{"source": "ChEMBL document CHEMBL1201862", "about": "“PubChem BioAssay data set” (2004)", "note": "Activity calls are given as the source filed them."}
{"tested_on": "not listed separately", "assay": "inhibitors of firefly luciferase expression or activity, dose response, H4 neuroglioma cells, luminescence (AID 1990)", "assay_type": "functional, cell-based", "settings": "not given"}
{"smiles": "O=C(NC1CC1)C1=C[C@@H](c2coc3ccccc3c2=O)C[C@@H](OCc2ccc(CO)cc2)O1", "EC50": "> 120 µM (not active)"}
{"smiles": "CC1CCN(S(=O)(=O)c2ccc3c(c2)N(CC(=O)N(C)Cc2ccco2)C(=O)CO3)CC1", "EC50": "> 120 µM (not active)"}
{"smiles": "O=Cc1cn(Cc2ccc(F)cc2Cl)c2ccccc12", "EC50": "16.2 µM (active)"}
{"smiles": "CCOC(=O)N1CCN(S(=O)(=O)c2ccc(C(=O)Nc3ccc(F)cc3F)cc2)CC1", "EC50": "10.9 µM (active)"}
{"smiles": "CCOC(=O)c1cnc2c(OC)cccc2c1N1CC(C)CC(C)C1", "note": "(stereo not drawn)", "EC50": "13.9 µM (active)"}
{"smiles": "COc1ccc(CN2CCCC(C(=O)c3ccc(Cl)cc3)C2)cc1Cn1cccn1", "note": "(stereo not drawn)", "EC50": "> 120 µM (not active)"}
{"smiles": "Cc1c([N+](=O)[O-])c(N)nn1C", "EC50": "> 120 µM (not active)"}
{"smiles": "Cc1ccc(S(=O)(=O)NNC(=O)c2ccccc2-n2cccc2)cc1", "EC50": "> 120 µM (not active)"}
{"target": "T1, RNA-binding protein pos-1 (Caenorhabditis elegans, UniProt G5EF15)", "T1 sequence (G5EF15 whole entry)": "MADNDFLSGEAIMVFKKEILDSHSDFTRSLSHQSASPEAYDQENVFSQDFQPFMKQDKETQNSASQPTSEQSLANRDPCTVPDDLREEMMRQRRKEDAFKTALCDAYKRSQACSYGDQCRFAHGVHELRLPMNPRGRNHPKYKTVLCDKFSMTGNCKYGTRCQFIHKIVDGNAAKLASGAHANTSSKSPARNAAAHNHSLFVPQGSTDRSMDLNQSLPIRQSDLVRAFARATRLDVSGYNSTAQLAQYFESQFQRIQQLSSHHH", "assay": "inhibitors of POS-1/mex-3 RNA binding, dose response, biochemical, fluorescence polarization (AID 1964);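 note: purified POS-1 fused to maltose binding protein made in E. coli; potency of compounds blocking POS-1 binding to fluorescent RNA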", "settings": "not given"}
{"smiles": "CC(C)CNC(=O)C1Nc2ccccc2C2C=CCC12", "note": "(stereo not drawn)", "EC50": "> 300 µM (not active)"}
{"smiles": "N#C/C(=C\\N1CCN(Cc2ccc3c(c2)OCO3)CC1)c1nc2ccccc2s1", "EC50": "> 300 µM (not active)"}
{"smiles": "Cc1cc(C=C2C(=O)N(C)C(=S)N(C)C2=O)c(C)n1C1CCCC1", "EC50": "189 µM (active)"}
{"smiles": "CC(=O)N/C=C1\\C(=O)N(C)C(=O)C(C#N)=C1C", "EC50": "36.1 µM (active)"}
{"smiles": "COc1cc2c3nnc(-c4ccccc4)c-3cn(Cc3ccc(F)cc3)c2cc1OC", "EC50": "> 300 µM (not active)"}
{"smiles": "Cc1sc(-n2c(C)cc(C=C3C(=O)NC(=O)NC3=O)c2C)c(C#N)c1C", "EC50": "> 300 µM (not active)"}
{"smiles": "COc1cc(C2C(C#N)=C(N)OC3=C2C(=O)CC(C)(C)C3)cc2c1OCO2", "note": "(stereo not drawn)", "EC50": "> 300 µM (not active)"}
{"smiles": "CC1=C(C#N)C(=O)N(C)C(=O)/C1=C\\NNc1ccc(C)c(C)c1", "EC50": "> 300 µM (not active)"}
{"tested_on": "not listed separately", "assay": "Luminescence Cell-Based Dose Response HTS to Identify Inhibitors of 5'UTR Stem-Loop Driven Prion Protein mRNA Translation in H4 Neuroglioblastoma Cells. [Related pubchem assays: 1827 (Project Summary), 1813 (Primary HTS)]", "assay_type": "functional", "settings": "not given"}
{"smiles": "O=C(NC1CC1)C1=C[C@@H](c2coc3ccccc3c2=O)C[C@@H](OCc2ccc(CO)cc2)O1", "EC50": "> 120 µM (not active)"}
{"smiles": "CC1CCN(S(=O)(=O)c2ccc3c(c2)N(CC(=O)N(C)Cc2ccco2)C(=O)CO3)CC1", "EC50": "> 120 µM (not active)"}
{"smiles": "O=Cc1cn(Cc2ccc(F)cc2Cl)c2ccccc12", "EC50": "16.8 µM (active)"}
{"smiles": "CCOC(=O)N1CCN(S(=O)(=O)c2ccc(C(=O)Nc3ccc(F)cc3F)cc2)CC1", "EC50": "> 120 µM (not active)"}
{"smiles": "CCOC(=O)c1cnc2c(OC)cccc2c1N1CC(C)CC(C)C1", "note": "(stereo not drawn)", "EC50": "> 120 µM (not active)"}
{"smiles": "COc1ccc(CN2CCCC(C(=O)c3ccc(Cl)cc3)C2)cc1Cn1cccn1", "note": "(stereo not drawn)", "EC50": "> 120 µM (not active)"}
{"smiles": "Cc1c([N+](=O)[O-])c(N)nn1C", "EC50": "> 120 µM (not active)"}
{"smiles": "Cc1ccc(S(=O)(=O)NNC(=O)c2ccccc2-n2cccc2)cc1", "EC50": "> 120 µM (not active)"}
{"target": "T2, Zinc finger protein mex-5 (Caenorhabditis elegans, UniProt Q9XUB2)", "T2 sequence (Q9XUB2 whole entry)": "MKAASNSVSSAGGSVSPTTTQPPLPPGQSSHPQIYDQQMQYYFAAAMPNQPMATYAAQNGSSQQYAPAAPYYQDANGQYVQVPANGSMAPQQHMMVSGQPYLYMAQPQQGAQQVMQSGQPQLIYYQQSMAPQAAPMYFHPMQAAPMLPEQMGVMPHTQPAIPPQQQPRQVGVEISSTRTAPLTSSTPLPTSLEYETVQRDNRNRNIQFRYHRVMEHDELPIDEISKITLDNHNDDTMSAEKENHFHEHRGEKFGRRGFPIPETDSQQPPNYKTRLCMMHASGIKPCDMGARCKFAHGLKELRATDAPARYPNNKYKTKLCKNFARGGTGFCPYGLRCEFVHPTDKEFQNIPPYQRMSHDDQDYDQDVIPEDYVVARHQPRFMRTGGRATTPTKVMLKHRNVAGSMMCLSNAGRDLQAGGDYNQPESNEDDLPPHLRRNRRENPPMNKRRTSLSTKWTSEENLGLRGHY", "assay": "MEX-5/TCR-2 RNA interaction inhibitors, dose response, biochemical, C. elegans, fluorescence polarization (AID 1960)", "settings": "not given"}
{"smiles": "CC(C)CNC(=O)C1Nc2ccccc2C2C=CCC12", "note": "(stereo not drawn)", "EC50": "> 300 µM (not active)"}
{"smiles": "N#C/C(=C\\N1CCN(Cc2ccc3c(c2)OCO3)CC1)c1nc2ccccc2s1", "EC50": "> 300 µM (not active)"}
{"smiles": "Cc1cc(C=C2C(=O)N(C)C(=S)N(C)C2=O)c(C)n1C1CCCC1", "EC50": "129 µM (active)"}
{"smiles": "CC(=O)N/C=C1\\C(=O)N(C)C(=O)C(C#N)=C1C", "EC50": "34.9 µM (active)"}
{"smiles": "COc1cc2c3nnc(-c4ccccc4)c-3cn(Cc3ccc(F)cc3)c2cc1OC", "EC50": "> 300 µM (not active)"}
{"smiles": "Cc1sc(-n2c(C)cc(C=C3C(=O)NC(=O)NC3=O)c2C)c(C#N)c1C", "EC50": "> 300 µM (not active)"}
{"smiles": "COc1cc(C2C(C#N)=C(N)OC3=C2C(=O)CC(C)(C)C3)cc2c1OCO2", "note": "(stereo not drawn)", "EC50": "> 300 µM (not active)"}
{"smiles": "CC1=C(C#N)C(=O)N(C)C(=O)/C1=C\\NNc1ccc(C)c(C)c1", "EC50": "40.6 µM (active)"}
{"tested_on": "not listed separately", "assay": "inhibitors of SNCA 5'UTR-driven reporter translation, confirmation, H4 neuroglioma cells, luminescence (AID 1988)", "assay_type": "functional, cell-based", "settings": "not given"}
{"smiles": "O=C(NC1CC1)C1=C[C@@H](c2coc3ccccc3c2=O)C[C@@H](OCc2ccc(CO)cc2)O1", "EC50": "> 120 µM (not active)"}
{"smiles": "CC1CCN(S(=O)(=O)c2ccc3c(c2)N(CC(=O)N(C)Cc2ccco2)C(=O)CO3)CC1", "EC50": "21.2 µM (active)"}
{"smiles": "O=Cc1cn(Cc2ccc(F)cc2Cl)c2ccccc12", "EC50": "12.4 µM (active)"}
{"smiles": "CCOC(=O)N1CCN(S(=O)(=O)c2ccc(C(=O)Nc3ccc(F)cc3F)cc2)CC1", "EC50": "7.91 µM (active)"}
{"smiles": "CCOC(=O)c1cnc2c(OC)cccc2c1N1CC(C)CC(C)C1", "note": "(stereo not drawn)", "EC50": "14.4 µM (active)"}
{"smiles": "COc1ccc(CN2CCCC(C(=O)c3ccc(Cl)cc3)C2)cc1Cn1cccn1", "note": "(stereo not drawn)", "EC50": "> 120 µM (not active)"}
{"smiles": "Cc1c([N+](=O)[O-])c(N)nn1C", "EC50": "> 120 µM (not active)"}
{"smiles": "Cc1ccc(S(=O)(=O)NNC(=O)c2ccccc2-n2cccc2)cc1", "EC50": "> 120 µM (not active)"}
{"target": "Cytochrome P450 2C19 (Homo sapiens, UniProt P33261)", "sequence (P33261 whole entry)": "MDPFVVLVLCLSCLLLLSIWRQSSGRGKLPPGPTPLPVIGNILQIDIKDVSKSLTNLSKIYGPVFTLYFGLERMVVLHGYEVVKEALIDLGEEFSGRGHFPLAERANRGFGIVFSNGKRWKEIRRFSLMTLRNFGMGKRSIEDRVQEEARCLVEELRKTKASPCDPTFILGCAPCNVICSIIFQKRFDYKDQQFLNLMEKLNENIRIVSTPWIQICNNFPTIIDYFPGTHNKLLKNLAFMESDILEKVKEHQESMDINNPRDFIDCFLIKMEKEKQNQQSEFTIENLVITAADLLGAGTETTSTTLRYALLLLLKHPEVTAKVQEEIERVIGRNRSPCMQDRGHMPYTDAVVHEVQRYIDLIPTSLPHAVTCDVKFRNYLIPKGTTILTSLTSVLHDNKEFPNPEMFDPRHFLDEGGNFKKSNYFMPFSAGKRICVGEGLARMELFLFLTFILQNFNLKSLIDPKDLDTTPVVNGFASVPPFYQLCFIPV", "assay": "Cytochrome panel assay with activity outcomes. Panel member name: p450-cyp2c19 Compounds with AC50 equal or less than 10 uM are considered active", "assay_type": "functional", "settings": "read-out: AC50"}
{"smiles": "CCOC(=O)N1CCN(S(=O)(=O)c2ccc(C(=O)Nc3ccc(F)cc3F)cc2)CC1", "AC50": "25.1 µM (inconclusive)"}
{"target": "T3, Cytochrome P450 1A2 (Homo sapiens, UniProt P05177)", "T3 sequence (P05177 whole entry)": "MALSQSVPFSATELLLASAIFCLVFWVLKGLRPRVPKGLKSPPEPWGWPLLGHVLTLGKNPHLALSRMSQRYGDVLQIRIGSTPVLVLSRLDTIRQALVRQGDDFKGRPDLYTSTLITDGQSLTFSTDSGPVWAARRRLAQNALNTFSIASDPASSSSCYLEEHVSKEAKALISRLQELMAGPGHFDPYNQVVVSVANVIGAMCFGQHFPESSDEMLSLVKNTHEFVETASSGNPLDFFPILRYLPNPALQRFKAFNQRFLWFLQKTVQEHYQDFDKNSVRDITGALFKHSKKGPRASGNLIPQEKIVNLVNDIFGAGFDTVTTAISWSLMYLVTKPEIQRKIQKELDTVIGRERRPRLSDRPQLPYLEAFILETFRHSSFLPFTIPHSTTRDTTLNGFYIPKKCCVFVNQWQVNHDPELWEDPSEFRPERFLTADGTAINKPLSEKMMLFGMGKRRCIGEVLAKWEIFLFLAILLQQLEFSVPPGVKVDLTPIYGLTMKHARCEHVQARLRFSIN", "settings": "not given"}
{"smiles": "CCOC(=O)N1CCN(S(=O)(=O)c2ccc(C(=O)Nc3ccc(F)cc3F)cc2)CC1", "AC50": "6.31 µM (inconclusive)"}
{"target": "Cytochrome P450 3A4 (Homo sapiens, UniProt P08684)", "sequence (P08684 whole entry)": "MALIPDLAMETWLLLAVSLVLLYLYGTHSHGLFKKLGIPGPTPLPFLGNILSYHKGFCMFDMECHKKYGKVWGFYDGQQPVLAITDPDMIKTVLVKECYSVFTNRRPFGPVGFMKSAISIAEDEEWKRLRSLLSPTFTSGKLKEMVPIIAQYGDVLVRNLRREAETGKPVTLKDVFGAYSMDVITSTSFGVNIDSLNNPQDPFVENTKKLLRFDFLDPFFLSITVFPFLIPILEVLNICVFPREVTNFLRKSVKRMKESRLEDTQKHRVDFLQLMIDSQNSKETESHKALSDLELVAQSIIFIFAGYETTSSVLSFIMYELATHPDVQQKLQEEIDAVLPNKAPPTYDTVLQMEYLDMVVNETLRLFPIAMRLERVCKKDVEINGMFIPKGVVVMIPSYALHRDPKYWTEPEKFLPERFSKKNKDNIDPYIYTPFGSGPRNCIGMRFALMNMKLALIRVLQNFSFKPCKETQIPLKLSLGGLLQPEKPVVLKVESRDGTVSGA", "settings": "not given"}
{"smiles": "CCOC(=O)N1CCN(S(=O)(=O)c2ccc(C(=O)Nc3ccc(F)cc3F)cc2)CC1", "AC50": "14.1 µM (inconclusive)"}
